Laboratory results: US20130316374A1, “BREAST CANCER DIAGNOSTICS” (IMBA - INSTITUT FUR MOLEKULARE BIOTECHNOLOGIE GMBH, priority 2010, published 2013)

What was measured:
[1] = system: NFκB pathway, CyclinD1; experiment: NFκB pathway activation and CyclinD1 expression in mammary epithelial cells after MPA; type: in vivo, mouse; conditions: three day MPA treatment
Description: a, Activation of the NFκB pathway and CyclinD1 expression by MPA. Nulliparous RANK^Δmam and littermate control females were s.c. implanted with slow-release MPA pellets or treated with sham surgery. a, In situ immunostaining to detect phosphorylated (P) IκBα in mammary epithelial cells of RANK^Δmam and littermate control females after 3d MPA treatment. b, Western blot analysis of CyclinD1 and RANKL in isolated mammary epithelial cells from RANK^Δmam and littermate control females after 3d MPA treatment. Recombinant, murine sRANKL protein is shown for molecular size comparison. β-actin is shown as a loading control.
RANKL-RANK signaling via IKKα-NFκB-CyclinD1 in mammary epithelial cells is illustrated in FIG. 11a. […] To directly show whether RANK mediates NFκB-CyclinD1 activation downstream of progestins in vivo, mice were challenged with MPA. […] The Id2 pathway is a second genetically confirmed down-stream pathway for RANKL/RANK in mammary epithelial cells^17. To extend these findings to human, human SKBR3 breast tumor cells were assayed. […] To further test the effects of RANKL stimulation the ability of these cells to grow in an anchorage-independent manner was assessed, which correlates well with tumorigenicity in vivo^18.

[2] = system: Lin-CD24+CD49f^hi cells; experiment: FACS quantification of MaSC-enriched CD24+CD49high population from mammary glands; type: in vivo, mouse; conditions: MPA for 3 days
Method: a, Epithelial proliferation in mammary glands of control littermates and RANK^Δmam females 3 days after sham treatment and MPA implantation. Proliferation was determined by in situ Ki67 immunostaining. b,c, Marked increase of the stem cell-enriched CD24^+CD49^high population (MaSC) in MPA-treated mammary glands in control but not in RANK^Δmam mammary glands. b, Representative FACS profiles showing CD24 and CD49 expression of lineage negative (CD31^− (endothelial cells) CD45^− (hematopoietic cells) […] (erythroid cells)) of mammary MaSCs from MPA- or sham-treated 8-week old virgin females. c, Quantification of MaSC-enriched CD24^+CD49^high population from mammary glands of MPA- or sham-treated virgin RANK^Δmam and littermate control females. For all MaSCs experiments mice were treated with MPA for 3 days. n=4 per group+/−sem. *P<0.05; ***P<0.001 (Student's t-test).
Recently it has been reported that endogenous progesterone affects the numbers of Lin-CD24+CD49f^hi stem cells during pregnancy^15 and the estrous cycle^16. In both studies, the RANKL/RANK system was implicated based on in vivo whole body Ab blocking studies and RT-PCR expression, however, it was not known whether this is a direct effect of RANKL-RANK in mammary epithelial cells rather than a secondary effect. Therefore it was assayed whether progestins such as MPA can also expand Lin-CD24+CD49f^hi cells.

SMILES: CC(=O)O[C@]1(C(C)=O)CC[C@H]2[C@@H]3C[C@H](C)C4=CC(=O)CC[C@]4(C)[C@H]3CC[C@@]21C [MPA, medroxyprogesterone acetate]
- nuclear phosphorylated IκBα and CyclinD1 protein expression ([1]; RANK^Δmam female): severely reduced
- CyclinD1 protein expression in mammary epithelial cells ([1]; control females): induction of CyclinD1 protein expression
- nuclear phosphorylated IκBα in mammary epithelial cells ([1]; control females): nuclear accumulation of phosphorylated IκBα
- expansion of Lin-CD24+CD49f^hi cells ([2]; RANK^Δmam females): did not occur
- expansion of Lin-CD24+CD49f^hi cells ([2]; control females): two-fold expansion
